Experimental data: publication PMC8682738, “Constrained peptides mimic a viral suppressor of RNA silencing” (Nucleic Acids Research, 2021)
Positions of bridges follow the written chain, without caps; N, C: chain ends. Non-standard residues stand in square brackets, D forms with d. Residues, ends and D or L forms follow the SMILES beside them. *: point of attachment. FITC = O=C1OC2(c3ccc(O)cc3Oc3cc(O)ccc32)c2ccc(NC(=S)*)cc21; R8 = C=CCCCCCC[C@@](C)(N)C(=O)O; S5 = C=CCCC[C@](C)(N)C(=O)O; AEEA = NCCOCCOCC(=O)O

Experiments:
ss-RNA miR-21 3´ = assay: EMSA with single-stranded RNA; type: binding; settings: fluorescein-labeled peptide 3 μM, oligonucleotide 9 μM
ds miR-21 = assay: EMSA with ds miR-21; type: binding; settings: peptide 6 μM, ds miR-21 3 μM
Method: (§1) Electrophoretic mobility shift assays (EMSAs) were performed using a Bio-Rad Mini-Protean gel system paired with a direct current (DC) power source (PowerPac™ HC, Bio-Rad). Typically, 6 μl solutions containing ds RNA (c = 3 μM) and fluorescein-labeled peptide (c = 6 μM) were incubated in binding buffer (10 mM Tris (pH 8.0), 0.5 mM EDTA, 12.5% glycerol and 150 mM KCl) at 4°C for 1 h. After incubation, bound RNA was resolved from peptide-free RNA using 10% non-denaturing polyacrylamide gels at 120 V in running buffer (25 mM Tris (pH 8.0), 200 mM glycine, 20 mM NaCl) at 4°C for 1 h. Visualization of fluorescent gel-bound species was conducted using a Typhoon Trio + fluorescence scanner (GE Healthcare Life Sciences). For nucleic acid visualization, gels were stained using 2 μl of SYBR™ gold nucleic acid gel dye (Molecular Probes) in 20 ml of TAE buffer (40 mM Tris, 1 mM EDTA, 20 mM acetic acid) for 45 min at RT before being visualized using a FluorChem™ gel documentation system (Alpha Innotech). To assess B3 binding to different ds RNA sequences (Supplementary Figure S20), 6 μl solutions containing hairpin RNA (c = 1 μM) and fluorescein-labeled B3 (c = 2 μM) were incubated in binding buffer (TAE and 10% glycerol) at RT for 1 h, and then resolved using 15% non-denaturing polyacrylamide gels (acrylamide/bis-acrylamide (19:1) in TAE) at 150 V in running buffer (TAE) at 4°C for 1.5 h. Visualization of fluorescent gel-bound species was conducted using a Bio-Rad ChemiDoc (Bio-Rad). Subsequently, gels were stained with SYBR™ gold nucleic acid gel dye (Invitrogen) as described above and visualized using the same imaging system. To assess B3 binding to pre–miR-21 (Supplementary Figure S24), the RNA was prepared at a fixed concentration (c = 1 μM) and incubated with varying concentrations of fluorescein-labeled B3 (c = 0–5 μM) in binding buffer (TAE and 10% glycerol) at RT for 1 h. […]

pre-miR-21 = assay: EMSA with pre-miR-21; type: binding; settings: fluorescein-labeled peptide 6 μM, pre-miR-21 3 μM
Method: as §1, with “h.” for “h. Visualization of fluorescent gel-bound species was conducted using a Bio-Rad ChemiDoc (Bio-Rad). Subsequently, gels were stained with SYBR™ gold nucleic acid gel dye (Invitrogen) as described above and visualized using the same imaging system. To assess B3 binding to pre–miR-21 (Supplementary Figure S24), the RNA was prepared at a fixed concentration (c = 1 μM) and incubated with varying concentrations of fluorescein-labeled B3 (c = 0–5 μM) in binding buffer (TAE and 10% glycerol) at RT for 1 h.”

miR-21 duplex = assay: Thermal denaturation of miR-21 duplex (CD melting); type: binding; settings: miR-21 2 μM, unlabeled peptide 4 μM
Method: For each sample, 10 CD spectra were measured between λ = 200 and 350 nm with continuous scan mode (1 mdeg sensitivity, 1.0 nm resolution, 1.0 nm bandwidth, 2 s integration time, 100 nm·min^−1 scan rate). Obtained spectra were averaged and then subtracted from a reference buffer spectrum. CD data were normalized to oligonucleotide strand concentration using Formula (1):(1) where θ = observed ellipticity (mdeg), c = DNA strand concentration (mol·l^−1) and l = path length (cm).
Melting temperature (Tm) determination was conducted using the same instrumentation and sample preparation, where ellipticity (θ = 267 nm) was measured by ramping the temperature from 15–90°C (4°C·min^−1 ramp, ±0.05°C equilibration tolerance, 6 s delay after equilibration). Data points were recorded every 0.5°C. Raw data was normalized as described above and Tm-values were determined using the CDpal program ([44]) before being plotted in Prism 5.0 (GraphPad).

endogenous miR-21 = assay: Pull-down of miR-21 from K562 cells; type: cell-based, human; settings: biotinylated peptide 10 μM, streptavidin beads, qRT-PCR, triplicate
Method: 2 × 10^6 K562 cells were incubated with N-terminally biotinylated peptides (c(peptide) = 10 μM, t = 2.5 h) for uptake on a rotating wheel at 37°C. The cells were extensively washed in PBS and lysed in lysis buffer (25 mM HEPES, pH 7.5, 150 mM NaCl, 0.05% IGEPAL CA-630, 1 mM EDTA) supplemented with 0.5 U/μl RNAse inhibitor (Superase-in, ThermoFisher). The lysate was cleared by centrifugation at 21 000 g at 4°C, an aliquot of the supernatant was removed and re-suspended in Trizol, while the remaining was incubated with streptavidin-coupled magnetic beads (Dynabeads M280, ThermoFisher) on a rotating wheel (2 h, 4°C). After magnetic separation and washing (3× in lysis buffer), the beads were re-suspended in 20 μl lysis buffer, re-suspended in Trizol (ThermoFisher), and 400 ng t-RNA was added per sample as a carrier. RNA was extracted from Trizol using the standard protocol and the qRT-PCR was performed according to a previously published protocol ([62]) using the primers h-miR21-3p-FW ([…]), h-miR21-3p-RV ([…]), h-miR21-5p-FW ([…]), h-miR21-5p-RV ([…]) in a CFX96 real-time machine (Bio-Rad). The relative enrichment was calculated as a ratio of copies in the immunoprecipitate over input normalized to the enrichment of the control peptide D1.

[1] = tested on: Dicer processing of pre-miR-21; assay: Dicer cleavage assay of pre-miR-21; type: biochemical; settings: pre-miR-21 40 nM; for inhibition of pre-miR-21 maturation by Dicer (in words): Dicer 4 U·ml^−1, peptide 10–600 nM
Method: Next, RhDicer (0.5 U·μl^−1 solution; Genlantis) was diluted in buffer (20 mM Tris·HCl, pH 6.8, 100 mM NaCl, 1 mM MgCl2, 1 mM DTT, 5 mM β-mercaptoethanol, 10% glycerol, 0.1% Triton-X 100) to a concentration of 40 U·ml^−1 and then added to the peptide/RNA solutions (final RhDicer concentration: 4 U·ml^−1). The reaction solution was incubated for 150 min at 37°C, then denatured for 5 min at 70°C, and stored at 4°C. Subsequently, a 1:10 dilution in H2O of the reaction solution was performed and added to a Poly(A) Tailing and reverse transcription solution as previously reported ([62]). The samples were incubated at 42°C for 1 h before subsequent inactivation for 5 min at 95°C and cooling to 4°C. Next, qRT-PCR of each sample was performed using the primers miR21–5p–RV1 ([…]), miR21-5p-FW1 ([…]), and miRNA-RT1 ([…]) in a StepOnePlus™ real-time PCR system (Thermo Fisher Scientific). Briefly, 1 μl of template DNA solution was added to a solution of Luna® Universal Probe qPCR Master Mix (New England Biolabs) with a final primer concentration of 125 nM in 20 μl per sample. Samples were initially denatured for 5 min at 95°C followed by 45 temperature cycles of 15 s at 95°C and 30 s at 66°C. The quantification was done using miR-21-5p standard curves. To visualize the inhibitory potential of each peptide the normalized abundance of mature miR-21 (%) is plotted against the peptide concentration (nM).

| SMILES | binding to single-stranded RNA in EMSA (ss-RNA miR-21 3´) | binding to ds miR-21 in EMSA (ds miR-21) | binding to pre-miR-21 in EMSA (pre-miR-21) | ΔTm of miR-21 duplex (miR-21 duplex) | enrichment of miR-21 relative to control peptide D1 (endogenous miR-21) | inhibition of pre-miR-21 maturation by Dicer (in words) [1] | IC50 ([1]; recombinant Dicer 4 U·ml^−1, 150 min, 37°C, N-terminally acetylated peptide, qRT-PCR of miR-21, triplicate, read-out: Half-maximal Dicer inhibition) [nM] |
| --- | --- | --- | --- | --- | --- | --- | --- |
| CC(C)C[C@H](NC(=O)[C@]1(C)CCCC=CCCC[C@](C)(NC(=O)[C@H](CCC(=O)O)NC(=O)[C@H](CO)NC(=O)[C@@H]2CCCN2C(=O)[C@H](CO)NC(=O)[C@H](CCCCN)NC(=O)[C@H](Cc2c[nH]cn2)NC(=O)CNC(=O)[C@H](CCCNC(=N)N)NC(=O)[C@]2(C)CCCC=CCCC[C@](C)(NC(=O)[C@H](CCCCN)NC(=O)[C@H](Cc3c[nH]cn3)NC(=O)[C@H](CCCNC(=N)N)NC(=O)[C@H](CCCCN)NC(=O)[C@H](CCCNC(=N)N)NC(=O)[C@H](CCC(N)=O)NC(=O)[C@H](C)NC(=O)[C@H](CCC(N)=O)NC(=O)[C@H](CCCCN)NC(=O)[C@H](CCCCN)NC(=O)COCCOCCNC(=S)Nc3ccc4c(c3)C(=O)OC43c4ccc(O)cc4Oc4cc(O)ccc43)C(=O)N[C@@H](CC(N)=O)C(=O)N[C@@H](CCCNC(=N)N)C(=O)N[C@@H](CCCCN)C(=O)N2)C(=O)N[C@@H](CCCNC(=N)N)C(=O)N[C@@H](CCCNC(=N)N)C(=O)N[C@@H](CO)C(=O)N1)C(=O)N[C@@H](Cc1c[nH]c2ccccc12)C(=O)N[C@@H](Cc1c[nH]cn1)C(=O)N[C@@H](C)C(=O)N[C@@H](CCCNC(=N)N)C(N)=O [B3] ({FITC-AEEA}-KKQAQRKRHK[S5]NRK[S5]RGHKSPSE[S5]RRS[S5]LWHAR-NH2; staple 11-15, 24-28) | did not bind | formation of peptide/RNA complexes | indicated pre–miRNA-binding | > 10 °C | 35 fold | inhibited in a concentration-dependent manner | ~50 |
| CC(C)C[C@@H]1NC(=O)[C@@](C)(NC(=O)[C@H](CO)NC(=O)[C@H](CCCNC(=N)N)NC(=O)[C@H](CCCNC(=N)N)NC(=O)[C@H](CCC(N)=O)NC(=O)[C@H](CCC(=O)O)NC(=O)[C@H](CO)NC(=O)[C@@H]2CCCN2C(=O)[C@H](CO)NC(=O)[C@H](CCCCN)NC(=O)[C@H](Cc2c[nH]cn2)NC(=O)CNC(=O)[C@H](CCCNC(=N)N)NC(=O)[C@H](CCC(=O)O)NC(=O)[C@H](CCCCN)NC(=O)[C@H](CCCNC(=N)N)NC(=O)[C@H](CC(N)=O)NC(=O)[C@]2(C)CCCC=CCCCCCC[C@@](C)(NC(=O)[C@H](CCC(N)=O)NC(=O)[C@H](CCCCN)NC(=O)[C@H](CCCCN)NC(=O)COCCOCCNC(=S)Nc3ccc4c(c3)C(=O)OC43c4ccc(O)cc4Oc4cc(O)ccc43)C(=O)N[C@@H](CCC(N)=O)C(=O)N[C@@H](CCCNC(=N)N)C(=O)N[C@@H](CCCCN)C(=O)N[C@@H](CCCNC(=N)N)C(=O)N[C@@H](Cc3c[nH]cn3)C(=O)N[C@@H](CCCCN)C(=O)N2)CCCC=CCCC[C@@](C)(C(=O)N[C@@H](CCCNC(=N)N)C(N)=O)NC(=O)[C@H](Cc2c[nH]cn2)NC(=O)[C@H](Cc2c[nH]c3ccccc23)NC1=O [C1] ({FITC-AEEA}-KKQ[R8]QRKRHK[S5]NRKERGHKSPSEQRRS[S5]LWH[S5]R-NH2; staple 4-11, 28-32) | did not bind | formation of peptide/RNA complexes | indicated pre–miRNA-binding | > 10 °C | enrichment |  |  |
| CC(C)C[C@@H]1NC(=O)[C@H](CCC(=O)O)NC(=O)[C@H](CO)NC(=O)[C@@](C)(NC(=O)[C@H](CCCNC(=N)N)NC(=O)[C@H](CCC(N)=O)NC(=O)[C@H](CCC(=O)O)NC(=O)[C@H](CO)NC(=O)[C@@H]2CCCN2C(=O)[C@H](CO)NC(=O)[C@H](CCCCN)NC(=O)[C@H](Cc2c[nH]cn2)NC(=O)[C@]2(C)CCCC=CCCCCCC[C@@](C)(NC(=O)[C@H](Cc3c[nH]cn3)NC(=O)[C@H](CCCNC(=N)N)NC(=O)[C@H](CCCCN)NC(=O)[C@H](CCCNC(=N)N)NC(=O)[C@H](CCC(N)=O)NC(=O)[C@H](C)NC(=O)[C@H](CCC(N)=O)NC(=O)[C@H](CCCCN)NC(=O)[C@H](CCCCN)NC(=O)COCCOCCNC(=S)Nc3ccc4c(c3)C(=O)OC43c4ccc(O)cc4Oc4cc(O)ccc43)C(=O)N[C@@H](CC(C)C)C(=O)N[C@@H](CC(N)=O)C(=O)N[C@@H](CCCNC(=N)N)C(=O)N[C@@H](CCCCN)C(=O)N[C@@H](CCC(=O)O)C(=O)N[C@@H](CCCNC(=N)N)C(=O)N2)CCCC=CCCC[C@@](C)(C(=O)N[C@@H](Cc2c[nH]cn2)C(=O)N[C@@H](C)C(=O)N[C@@H](CCCNC(=N)N)C(N)=O)NC1=O [D1] ({FITC-AEEA}-KKQAQRKRH[R8]LNRKER[S5]HKSPSEQR[S5]SEL[S5]HAR-NH2; staple 10-17, 26-30) |  | did not show binding |  | only showed a mild effect on duplex stability |  | showed only small effects |  |
